Measured values as given in PubChem BioAssay AID724 (NMMLSC, 2007).
Active and inactive are the calls of the source. No rule for the calls is given here.

Target: fMet-Leu-Phe receptor (Homo sapiens) (UniProt P21462)
Experiment: FPR1 fluorescent ligand binding inhibitors, dose response, cell-based, flow cytometry, Ki from IC50 (AID 724)
Settings: FPR1-expressing cells, fluorescent ligand binding competition; for IC50: measured here: IC50 of ligand binding inhibition

Chain of fMet-Leu-Phe receptor (Homo sapiens) (P21462 whole entry, looked up): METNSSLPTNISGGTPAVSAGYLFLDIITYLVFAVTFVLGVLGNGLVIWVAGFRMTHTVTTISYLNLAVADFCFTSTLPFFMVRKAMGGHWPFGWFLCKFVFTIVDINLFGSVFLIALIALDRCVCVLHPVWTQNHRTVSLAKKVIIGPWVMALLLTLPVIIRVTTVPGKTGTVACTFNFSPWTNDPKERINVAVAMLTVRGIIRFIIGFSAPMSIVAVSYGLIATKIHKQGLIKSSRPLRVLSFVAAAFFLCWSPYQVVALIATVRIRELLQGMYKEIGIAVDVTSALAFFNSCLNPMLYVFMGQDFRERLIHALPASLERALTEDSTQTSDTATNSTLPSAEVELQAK

SMILES	IC50 [µM]	Ki
CCc1cc2c(=O)c(-c3nc4ccccc4n3C)c(C)oc2cc1OC(C)=O	0.5	–
O=C(Oc1ccc2c(=O)c(-c3ccccc3Cl)c(C(F)(F)F)oc2c1)c1cccs1	1.7	–
O=C1C(=O)N(CN2CCOCC2)C(c2ccc(Br)cc2)/C1=C(\O)c1ccccc1 (stereo not given)	–	> 44.3 µM (inactive)
Cc1nc2c(-c3ccc(Cl)cc3)c(C(F)(F)F)[nH]n2c(=O)c1Cc1ccccc1	3.8	–
COc1ccc(C2C(C(=O)c3cccs3)=C(O)C(=O)N2CCN2CCOCC2)c(OC)c1 (stereo not given)	4.4	2.9 µM
O=C(C1=C(O)C(=O)N(CCCN2CCOCC2)C1c1cccnc1)c1cc2ccccc2o1 (stereo not given)	–	> 44.3 µM (inactive)
O=C1NC(c2ccc(Br)cc2)/C(=C(\O)c2ccc(Cl)cc2)C1=O (stereo not given)	–	> 44.3 µM (inactive)
O=C(C1=C(O)C(=O)N(CCCn2ccnc2)C1c1cccnc1)c1cc2ccccc2o1 (stereo not given)	–	> 44.3 µM (inactive)
COc1ccc(-c2c(C(F)(F)F)oc3cc(OC(=O)c4ccco4)ccc3c2=O)cc1OC	5	–
COc1ccc(C2C(C(=O)c3cc4ccccc4o3)=C(O)C(=O)N2CCN(C)C)cc1OC (stereo not given)	–	> 44.3 µM (inactive)
O=C(C1=C(O)C(=O)N(CCc2ccccc2)C1c1ccc(Cl)cc1)c1cccs1 (stereo not given)	10.6	6.9 µM
O=C(C1=C(O)C(=O)N(CCCn2ccnc2)C1c1cccnc1)c1ccco1 (stereo not given)	–	> 44.3 µM (inactive)
O=C(O)CCCN1C(=O)C(=O)/C(=C(/O)c2ccccc2)C1/C=C/c1ccccc1 (stereo not given)	–	> 44.3 µM (inactive)
N#Cc1c(N/C(=C\C(=O)c2ccccc2)C(=O)O)sc2c1CCC2	–	> 44.3 µM (inactive)
O=C1C(=O)N(c2ccc(F)cc2)C(c2ccc(Br)cc2)/C1=C(/O)c1ccccc1 (stereo not given)	–	> 44.3 µM (inactive)
COc1ccc(C2C(C(=O)c3ccco3)=C(O)C(=O)N2CCCN2CCOCC2)cc1OC (stereo not given)	–	> 44.3 µM (inactive)
COc1cc(C2C(C(C)=O)=C(O)C(=O)N2c2ccc(Br)cc2)ccc1O (stereo not given)	–	> 44.3 µM (inactive)
COc1ccc(-c2c(C(F)(F)F)oc3cc(OC(=O)c4cccnc4)ccc3c2=O)cc1OC	13.6	–
COc1ccc(C2C(C(=O)c3cccs3)=C(O)C(=O)N2CCCn2ccnc2)cc1 (stereo not given)	7.1	4.7 µM
COc1cc(C2C(C(=O)c3cc4ccccc4o3)=C(O)C(=O)N2CCN(C)C)ccc1O (stereo not given)	–	> 44.3 µM (inactive)
COc1ccccc1-c1c(C(F)(F)F)oc2cc(OC(=O)c3ccco3)ccc2c1=O	1.7	–
CC(=O)C1=C(O)C(=O)N(CCc2c(C)[nH]c3ccccc23)C1c1cccc(F)c1 (stereo not given)	17.2	inactive

Results, then the compound that gave them:

IC50 [µM]	Ki	SMILES
–	> 44.3 µM (inactive)	COc1ccc(/C(O)=C2/C(=O)C(=O)NC2c2ccc(OC)cc2OC)cc1 (stereo not given)
50.5	inactive	COCCCN1C(=O)C(=O)/C(=C(/O)c2ccccc2)C1c1ccc(O)c(OC)c1 (stereo not given)
9.2	6 µM	COc1ccc(OC)c(C2/C(=C(\O)c3ccccc3)C(=O)C(=O)N2c2cccnc2)c1 (stereo not given)
5.2	3.4 µM	COc1ccc(C2/C(=C(\O)c3ccccc3)C(=O)C(=O)N2CCCn2ccnc2)c(OC)c1 (stereo not given)
59.7	inactive	COc1ccc(C2/C(=C(\O)c3ccc(C)cc3)C(=O)C(=O)N2Cc2cccnc2)c(OC)c1 (stereo not given)
–	> 44.3 µM (inactive)	COc1ccc(OC)c(C2/C(=C(\O)c3ccc(C)cc3)C(=O)C(=O)N2CCC(=O)O)c1 (stereo not given)
–	> 44.3 µM (inactive)	Cc1ccc(N2C(=O)C(=O)/C(=C(\O)c3ccccc3)C2c2cccc(F)c2)cc1Br (stereo not given)
47.5	inactive	COc1ccc(C2/C(=C(\O)c3ccccc3)C(=O)C(=O)N2c2cccc(Cl)c2)c(OC)c1 (stereo not given)
31.1	inactive	COCCCN1C(=O)C(=O)/C(=C(/O)c2ccccc2)C1c1ccc(C(C)C)cc1 (stereo not given)
9.8	6.4 µM	COc1ccc(C2C(C(=O)c3ccco3)=C(O)C(=O)N2CCN2CCOCC2)c(OC)c1 (stereo not given)
–	> 44.3 µM (inactive)	CCCCCCOc1cccc(N2C(=O)C(=O)/C(=C(\O)c3ccccc3)C2c2cccc(F)c2)c1 (stereo not given)
7.2	4.7 µM	CCCCCCN1C(=O)C(=O)/C(=C(\O)c2ccccc2)C1c1ccc(O)c(OC)c1 (stereo not given)
50.7	inactive	CC(C)c1ccc(C2/C(=C(\O)c3ccccc3)C(=O)C(=O)N2Cc2cccnc2)cc1 (stereo not given)
–	> 44.3 µM (inactive)	COc1ccc(/C(O)=C2/C(=O)C(=O)N(CCc3c[nH]c4ccccc34)C2c2ccc(C(C)C)cc2)cc1 (stereo not given)
25.7	inactive	COc1ccc(OC)c(C2/C(=C(\O)c3ccccc3)C(=O)C(=O)N2c2ccc(C)c(Cl)c2)c1 (stereo not given)
2.8	1.8 µM	COCCN1C(=O)C(=O)/C(=C(/O)c2ccccc2)C1c1cc(OC)ccc1OC (stereo not given)
–	> 44.3 µM (inactive)	Cc1ccc(/C(O)=C2\C(=O)C(=O)N(Cc3cccnc3)C2c2ccc(Br)cc2)cc1 (stereo not given)
–	> 44.3 µM (inactive)	Cc1ccc(/C(O)=C2\C(=O)C(=O)N(c3nnc(C)s3)C2c2ccc(C(C)C)cc2)cc1 (stereo not given)
